In ChEMBL document CHEMBL5303767, “Data for DCP probe JNJ-4355” (2023):
Calls of active or inactive are those of the source. The rule behind the calls is not given here.

Key:
Mu-type opioid receptor [1] = target: T1, Mu-type opioid receptor (Homo sapiens, UniProt P35372); experiment: GPCRScan assay: inhibition of MOR; parameters: radioligand conc. used [nm] 1.0 – 2.0, parental cells stable HEK
[2] = target: T2, Delta-type opioid receptor (Homo sapiens, UniProt P41143); experiment: GPCRScan assay: inhibition of DOR; parameters: radioligand conc. used [nm] 1.0 – 2.0, parental cells stable HEK
[3] = target: T3, Induced myeloid leukemia cell differentiation protein Mcl-1 (Homo sapiens, UniProt Q07820); experiment: HTRF (MCL1)
[4] = target: T3, Induced myeloid leukemia cell differentiation protein Mcl-1; experiment: Caspase Glo MOLP-8 assay; assay type: functional, cell-based, MOLP8
[5] = target: Apoptosis regulator Bcl-2 (Homo sapiens, UniProt P10415); experiment: HTRF (BCL2); assay type: functional
Bcl-2-related protein A1 = Bcl-2-related protein A1 (Homo sapiens, UniProt Q16548); experiment: HTRF (BCL2A1)
Bcl-2-like protein 1 = Bcl-2-like protein 1 (Homo sapiens, UniProt Q07817); experiment: HTRF (BCL2L1)
EOL1 = experiment: EOL-1 cell line Proliferation assay; assay type: functional, Homo sapiens
NOMO-1 = experiment: NOMO-1 cell line Proliferation assay; assay type: functional, Homo sapiens
MOLM-13 = experiment: MOLM-13 cell line Proliferation assay; assay type: functional, Homo sapiens
MV4-11 = experiment: MV4-11 cell line Proliferation assay; assay type: functional, Homo sapiens
THP-1 = experiment: THP-1 cell line Proliferation assay; assay type: functional, Homo sapiens
OCI-AML2 = experiment: OCI-AML-2 cell line Proliferation assay; assay type: functional, Homo sapiens
SUD4 = experiment: SU-DHL-4 cell line Proliferation assay; assay type: functional, Homo sapiens
Mino = experiment: MINO cell line Proliferation assay; assay type: functional, Homo sapiens
MOLP-8 = experiment: MOLP8 cell line Proliferation assay; assay type: functional, Homo sapiens
KMS-12-PE [6] = experiment: (§1) KMS-12-PE cell line Proliferation assay; assay type: functional, Homo sapiens
KMS-12-PE [7] = experiment: as §1; assay type: functional, Homo sapiens; remark: listed apart in the source
KMS-12-PE [8] = experiment: KMS-12-PE MCL-1 KO cell line Proliferation assay; assay type: functional, Homo sapiens
KMS-12-PE [9] = experiment: KMS-12-PE Bax/Bak dKO cell line Proliferation assay; assay type: functional, Homo sapiens
[10] = target: 5-hydroxytryptamine receptor 1A (Homo sapiens) (UniProt P08908); conditions: Compound concentration 10.0 uM
[11] = target: 5-hydroxytryptamine receptor 1B (Homo sapiens) (UniProt P28222); conditions: Compound concentration 10.0 uM
[12] = target: 5-hydroxytryptamine receptor 1D (Homo sapiens) (UniProt P28221); conditions: Compound concentration 10.0 uM
[13] = target: 5-hydroxytryptamine receptor 2A (Homo sapiens) (UniProt P28223); conditions: Compound concentration 10.0 uM
[14] = target: 5-hydroxytryptamine receptor 2B (Homo sapiens) (UniProt P41595); conditions: Compound concentration 10.0 uM
[15] = target: 5-hydroxytryptamine receptor 2C (Homo sapiens) (UniProt P28335); conditions: Compound concentration 10.0 uM
[16] = target: 5-hydroxytryptamine receptor 3A (Homo sapiens) (UniProt P46098); conditions: Compound concentration 10.0 uM
[17] = target: T4, 5-hydroxytryptamine receptor 5A (Homo sapiens, UniProt P47898); conditions: Compound concentration 10.0 uM
[18] = target: 5-hydroxytryptamine receptor 7 (Homo sapiens) (UniProt P34969); conditions: Compound concentration 10.0 uM
[19] = target: D(1A) dopamine receptor (Homo sapiens) (UniProt P21728); conditions: Compound concentration 10.0 uM
[20] = target: D(2) dopamine receptor (Homo sapiens) (UniProt P14416); conditions: Compound concentration 10.0 uM
[21] = target: D(3) dopamine receptor (Homo sapiens) (UniProt P35462); conditions: Compound concentration 10.0 uM
[22] = target: D(4) dopamine receptor (Homo sapiens) (UniProt P21917); conditions: Compound concentration 10.0 uM
[23] = target: D(1B) dopamine receptor (Homo sapiens) (UniProt P21918); conditions: Compound concentration 10.0 uM
[24] = target: Sodium-dependent serotonin transporter (Homo sapiens) (UniProt P31645); conditions: Compound concentration 10.0 uM
[25] = target: T5, Sodium-dependent noradrenaline transporter (Homo sapiens, UniProt P23975); conditions: Compound concentration 10.0 uM
[26] = target: T6, Sodium-dependent dopamine transporter (Homo sapiens, UniProt Q01959); conditions: Compound concentration 10.0 uM
[27] = target: T2, Delta-type opioid receptor; conditions: Compound concentration 10.0 uM
[28] = target: Kappa-type opioid receptor (Homo sapiens) (UniProt P41145); conditions: Compound concentration 10.0 uM
[29] = target: Histamine H1 receptor (Homo sapiens) (UniProt P35367); conditions: Compound concentration 10.0 uM
[30] = target: Histamine H2 receptor (Homo sapiens) (UniProt P25021); conditions: Compound concentration 10.0 uM
[31] = target: Histamine H3 receptor (Homo sapiens) (UniProt Q9Y5N1); conditions: Compound concentration 10.0 uM
[32] = target: Alpha-1B adrenergic receptor (Homo sapiens) (UniProt P35368); conditions: Compound concentration 10.0 uM
[33] = target: Alpha-2A adrenergic receptor (Homo sapiens) (UniProt P08913); conditions: Compound concentration 10.0 uM
[34] = target: Alpha-2B adrenergic receptor (Homo sapiens) (UniProt P18089); conditions: Compound concentration 10.0 uM
[35] = target: Alpha-2C adrenergic receptor (Homo sapiens) (UniProt P18825); conditions: Compound concentration 10.0 uM
[36] = target: Beta-2 adrenergic receptor (Homo sapiens) (UniProt P07550); conditions: Compound concentration 10.0 uM
[37] = target: Muscarinic acetylcholine receptor M1 (Homo sapiens) (UniProt P11229); conditions: Compound concentration 10.0 uM
[38] = target: Muscarinic acetylcholine receptor M2 (Homo sapiens) (UniProt P08172); conditions: Compound concentration 10.0 uM
[39] = target: Muscarinic acetylcholine receptor M3 (Homo sapiens) (UniProt P20309); conditions: Compound concentration 10.0 uM
[40] = target: Muscarinic acetylcholine receptor M5 (Homo sapiens) (UniProt P08912); conditions: Compound concentration 10.0 uM
[41] = target: Beta-3 adrenergic receptor (Homo sapiens) (UniProt P13945); conditions: Compound concentration 10.0 uM
Rattus norvegicus = species on record: Rattus norvegicus; conditions: Compound concentration 10.0 uM
[42] = target: Alpha-1D adrenergic receptor (Homo sapiens) (UniProt P25100); conditions: Compound concentration 10.0 uM
[43] = target: Sigma intracellular receptor 2 (Homo sapiens) (UniProt Q5BJF2); conditions: Compound concentration 10.0 uM
[44] = target: Sigma non-opioid intracellular receptor 1 (Homo sapiens) (UniProt Q99720); conditions: Compound concentration 10.0 uM
[45] = target: 5-hydroxytryptamine receptor 1A (Homo sapiens, UniProt P08908); experiment: GPCRScan assay: inhibition of 5-HT1A; parameters: radioligand conc. used [nm] 0.5 – 1.0, parental cells stable CHO
[46] = target: T4, 5-hydroxytryptamine receptor 5A; experiment: GPCRScan assay: inhibition of 5-HT5A; parameters: radioligand conc. used [nm] 2.0 - 3.3, parental cells Flp-In CHO
[47] = target: T5, Sodium-dependent noradrenaline transporter; experiment: GPCRScan assay: inhibition of NET; parameters: radioligand conc. used [nm] 1.3 – 5.0, parental cells stable HEK
[48] = target: T6, Sodium-dependent dopamine transporter; experiment: GPCRScan assay: inhibition of DAT; parameters: radioligand conc. used [nm] 3.6 – 16.0, parental cells stable HEK
Mu-type opioid receptor [49] = target: T1, Mu-type opioid receptor; conditions: Compound concentration 10.0 uM
[50] = target: Alpha-1A adrenergic receptor (Homo sapiens) (UniProt P35348); conditions: Compound concentration 10.0 uM
[51] = target: Beta-1 adrenergic receptor (Homo sapiens) (UniProt P08588); conditions: Compound concentration 10.0 uM
[52] = target: Muscarinic acetylcholine receptor M4 (Homo sapiens) (UniProt P08173); conditions: Compound concentration 10.0 uM

Sequence of Sigma non-opioid intracellular receptor 1 (Homo sapiens) (Q99720 whole entry): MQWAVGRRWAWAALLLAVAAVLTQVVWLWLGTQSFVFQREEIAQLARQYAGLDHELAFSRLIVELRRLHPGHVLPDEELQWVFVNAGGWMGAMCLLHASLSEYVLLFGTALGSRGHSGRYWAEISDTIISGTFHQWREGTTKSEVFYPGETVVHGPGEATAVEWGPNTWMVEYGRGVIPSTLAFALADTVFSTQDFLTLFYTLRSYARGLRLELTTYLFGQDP
T3 sequence (Q07820 whole entry): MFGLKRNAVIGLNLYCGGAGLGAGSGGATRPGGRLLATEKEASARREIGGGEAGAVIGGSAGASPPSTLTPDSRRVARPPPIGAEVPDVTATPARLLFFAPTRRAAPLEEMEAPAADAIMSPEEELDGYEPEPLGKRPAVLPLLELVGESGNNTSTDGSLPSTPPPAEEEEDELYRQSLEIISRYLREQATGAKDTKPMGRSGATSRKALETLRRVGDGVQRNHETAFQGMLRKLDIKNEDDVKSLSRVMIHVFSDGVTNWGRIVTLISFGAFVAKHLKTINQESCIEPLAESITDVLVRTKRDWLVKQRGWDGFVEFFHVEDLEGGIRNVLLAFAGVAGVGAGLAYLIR
Sequence of Alpha-2B adrenergic receptor (Homo sapiens) (P18089 whole entry): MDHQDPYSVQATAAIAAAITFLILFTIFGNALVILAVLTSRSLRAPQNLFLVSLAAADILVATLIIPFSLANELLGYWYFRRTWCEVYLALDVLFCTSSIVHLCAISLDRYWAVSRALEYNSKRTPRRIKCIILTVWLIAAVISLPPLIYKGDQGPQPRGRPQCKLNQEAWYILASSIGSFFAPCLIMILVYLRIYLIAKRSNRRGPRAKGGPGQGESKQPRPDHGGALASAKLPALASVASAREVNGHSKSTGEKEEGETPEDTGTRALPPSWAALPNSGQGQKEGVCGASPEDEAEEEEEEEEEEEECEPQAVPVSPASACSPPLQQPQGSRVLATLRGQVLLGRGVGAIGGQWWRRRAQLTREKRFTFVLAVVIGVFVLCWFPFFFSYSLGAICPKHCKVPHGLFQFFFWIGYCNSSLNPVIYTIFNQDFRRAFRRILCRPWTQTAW
Sequence of Alpha-2A adrenergic receptor (Homo sapiens) (P08913 whole entry): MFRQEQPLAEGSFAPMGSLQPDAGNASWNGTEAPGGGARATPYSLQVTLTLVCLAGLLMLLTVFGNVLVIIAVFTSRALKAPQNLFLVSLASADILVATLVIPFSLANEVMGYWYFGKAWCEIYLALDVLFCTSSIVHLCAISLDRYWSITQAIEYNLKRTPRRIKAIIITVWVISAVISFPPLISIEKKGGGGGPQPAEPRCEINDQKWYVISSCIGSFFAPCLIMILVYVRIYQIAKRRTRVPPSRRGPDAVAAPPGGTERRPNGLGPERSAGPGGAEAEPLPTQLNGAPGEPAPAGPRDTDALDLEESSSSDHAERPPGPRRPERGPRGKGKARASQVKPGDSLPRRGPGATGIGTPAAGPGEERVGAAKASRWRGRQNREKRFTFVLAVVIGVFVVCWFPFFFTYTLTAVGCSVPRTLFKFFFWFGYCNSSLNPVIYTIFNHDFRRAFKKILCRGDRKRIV
Sequence of Beta-2 adrenergic receptor (Homo sapiens) (P07550 whole entry, looked up): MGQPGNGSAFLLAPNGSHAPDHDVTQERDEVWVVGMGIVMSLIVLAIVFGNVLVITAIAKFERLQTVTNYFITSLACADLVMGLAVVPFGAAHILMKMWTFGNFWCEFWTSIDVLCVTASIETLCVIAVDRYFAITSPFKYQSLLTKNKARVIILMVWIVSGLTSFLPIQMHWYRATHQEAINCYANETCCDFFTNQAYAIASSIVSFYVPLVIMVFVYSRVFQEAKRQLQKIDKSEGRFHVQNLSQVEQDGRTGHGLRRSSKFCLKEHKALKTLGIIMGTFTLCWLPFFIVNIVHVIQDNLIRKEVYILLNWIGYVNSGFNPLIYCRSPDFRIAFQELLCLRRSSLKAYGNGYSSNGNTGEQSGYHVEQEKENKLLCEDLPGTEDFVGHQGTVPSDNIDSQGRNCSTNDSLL
Sequence of Beta-3 adrenergic receptor (Homo sapiens) (P13945 whole entry, looked up): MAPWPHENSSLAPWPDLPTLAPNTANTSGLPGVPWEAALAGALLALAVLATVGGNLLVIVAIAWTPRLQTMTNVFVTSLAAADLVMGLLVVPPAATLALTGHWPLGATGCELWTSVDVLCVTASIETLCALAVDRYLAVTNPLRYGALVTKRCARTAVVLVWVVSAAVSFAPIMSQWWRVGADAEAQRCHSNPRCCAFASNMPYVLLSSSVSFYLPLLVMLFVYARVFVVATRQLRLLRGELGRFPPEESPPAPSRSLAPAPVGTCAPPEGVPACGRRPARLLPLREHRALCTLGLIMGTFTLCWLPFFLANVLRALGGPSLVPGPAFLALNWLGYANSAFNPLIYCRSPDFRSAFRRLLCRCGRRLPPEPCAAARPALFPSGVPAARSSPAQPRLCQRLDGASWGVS
Sequence of Muscarinic acetylcholine receptor M2 (Homo sapiens) (P08172 whole entry): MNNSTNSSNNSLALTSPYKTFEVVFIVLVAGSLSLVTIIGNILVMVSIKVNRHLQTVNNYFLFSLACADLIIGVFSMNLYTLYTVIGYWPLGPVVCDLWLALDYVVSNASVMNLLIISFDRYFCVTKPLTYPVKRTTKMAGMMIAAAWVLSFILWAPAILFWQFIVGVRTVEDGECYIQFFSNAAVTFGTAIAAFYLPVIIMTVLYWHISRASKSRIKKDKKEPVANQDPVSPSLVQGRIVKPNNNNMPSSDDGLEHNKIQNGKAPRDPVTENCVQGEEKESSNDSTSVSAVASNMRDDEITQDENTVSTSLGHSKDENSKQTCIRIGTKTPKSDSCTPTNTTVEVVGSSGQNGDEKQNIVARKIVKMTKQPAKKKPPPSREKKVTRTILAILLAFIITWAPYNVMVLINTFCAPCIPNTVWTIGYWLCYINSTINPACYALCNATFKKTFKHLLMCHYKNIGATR
T4 sequence (P47898 whole entry): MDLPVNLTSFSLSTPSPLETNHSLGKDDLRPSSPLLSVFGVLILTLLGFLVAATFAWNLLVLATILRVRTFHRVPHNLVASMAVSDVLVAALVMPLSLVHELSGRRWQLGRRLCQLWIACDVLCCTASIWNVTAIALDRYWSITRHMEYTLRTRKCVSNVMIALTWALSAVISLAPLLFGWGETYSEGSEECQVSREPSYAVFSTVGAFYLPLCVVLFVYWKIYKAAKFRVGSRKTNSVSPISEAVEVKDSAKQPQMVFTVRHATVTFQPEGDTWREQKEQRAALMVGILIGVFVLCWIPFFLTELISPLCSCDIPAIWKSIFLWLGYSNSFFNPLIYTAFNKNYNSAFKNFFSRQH
Sequence of Sigma intracellular receptor 2 (Homo sapiens) (Q5BJF2 whole entry): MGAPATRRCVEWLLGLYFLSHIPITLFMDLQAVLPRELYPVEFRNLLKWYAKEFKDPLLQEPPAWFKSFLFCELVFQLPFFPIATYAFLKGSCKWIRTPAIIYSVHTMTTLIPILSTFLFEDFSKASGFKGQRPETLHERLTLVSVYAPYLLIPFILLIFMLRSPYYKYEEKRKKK
Sequence of Muscarinic acetylcholine receptor M5 (Homo sapiens) (P08912 whole entry): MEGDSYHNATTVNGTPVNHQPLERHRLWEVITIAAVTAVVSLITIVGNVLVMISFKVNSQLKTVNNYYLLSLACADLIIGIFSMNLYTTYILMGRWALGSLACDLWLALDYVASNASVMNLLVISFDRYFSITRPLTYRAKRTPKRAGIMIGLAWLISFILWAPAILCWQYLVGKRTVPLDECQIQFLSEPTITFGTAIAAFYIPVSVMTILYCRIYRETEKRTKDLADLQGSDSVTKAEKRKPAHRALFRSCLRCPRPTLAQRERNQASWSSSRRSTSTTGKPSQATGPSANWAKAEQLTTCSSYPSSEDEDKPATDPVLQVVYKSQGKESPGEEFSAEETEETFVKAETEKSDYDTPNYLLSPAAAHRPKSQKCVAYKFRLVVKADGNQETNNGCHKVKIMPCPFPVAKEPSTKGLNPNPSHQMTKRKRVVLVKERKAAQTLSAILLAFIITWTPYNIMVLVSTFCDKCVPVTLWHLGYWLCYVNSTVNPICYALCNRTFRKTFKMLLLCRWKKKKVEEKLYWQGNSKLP
Sequence of D(4) dopamine receptor (Homo sapiens) (P21917 whole entry): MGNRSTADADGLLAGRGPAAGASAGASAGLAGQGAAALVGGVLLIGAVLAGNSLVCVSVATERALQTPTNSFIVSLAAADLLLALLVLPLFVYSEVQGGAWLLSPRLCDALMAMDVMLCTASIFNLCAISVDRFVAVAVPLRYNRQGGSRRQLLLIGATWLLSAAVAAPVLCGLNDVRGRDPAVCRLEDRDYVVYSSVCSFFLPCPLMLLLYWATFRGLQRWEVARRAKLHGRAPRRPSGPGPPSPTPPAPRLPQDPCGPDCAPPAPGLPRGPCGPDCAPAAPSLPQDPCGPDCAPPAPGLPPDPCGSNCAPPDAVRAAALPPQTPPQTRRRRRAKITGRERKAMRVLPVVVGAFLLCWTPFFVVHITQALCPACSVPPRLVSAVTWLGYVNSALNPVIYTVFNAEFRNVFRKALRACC
Sequence of D(1B) dopamine receptor (Homo sapiens) (P21918 whole entry): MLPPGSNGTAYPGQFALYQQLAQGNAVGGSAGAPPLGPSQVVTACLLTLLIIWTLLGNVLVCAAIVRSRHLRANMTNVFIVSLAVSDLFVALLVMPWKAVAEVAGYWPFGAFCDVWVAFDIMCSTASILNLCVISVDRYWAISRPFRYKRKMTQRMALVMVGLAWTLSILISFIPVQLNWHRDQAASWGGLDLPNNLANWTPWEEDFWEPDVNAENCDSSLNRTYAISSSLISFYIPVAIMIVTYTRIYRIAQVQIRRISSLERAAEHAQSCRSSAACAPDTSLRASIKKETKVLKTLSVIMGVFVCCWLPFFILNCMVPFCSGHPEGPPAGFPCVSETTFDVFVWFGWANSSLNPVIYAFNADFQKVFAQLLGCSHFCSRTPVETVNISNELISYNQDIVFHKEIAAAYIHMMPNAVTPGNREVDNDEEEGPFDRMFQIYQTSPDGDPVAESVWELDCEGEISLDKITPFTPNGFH
Sequence of Bcl-2-related protein A1 (Q16548 whole entry): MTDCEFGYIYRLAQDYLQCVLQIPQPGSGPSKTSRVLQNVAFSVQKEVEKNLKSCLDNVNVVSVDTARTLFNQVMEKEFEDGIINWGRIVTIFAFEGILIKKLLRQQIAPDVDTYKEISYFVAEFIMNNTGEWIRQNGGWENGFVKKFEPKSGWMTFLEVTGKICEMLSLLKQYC

Molecule `COCCOCCn1nc2c(c1C)-c1c(Cl)ccc3c1c(C)c(C(=O)O)n3CCCOc1cc(cc3c(F)c(Cl)ccc13)CCc1cc(nn1C)CSC2` has a Ki (Mu-type opioid receptor [1]) of over 10000 nM, a pKi (Mu-type opioid receptor [1]) of under 5 and a Ki ([2]; read-out: Ki) of 871 nM. For the same molecule, the Ki ([2]; read-out: pKi (converted)) was 724 nM, the Ki [3] was 0.015 nM (active) and the AC50 [4] was 12 nM (active). For the same molecule, the Ki [5] was > 3750 nM (not active), the Ki (Bcl-2-related protein A1) was > 5000 nM (not active) and the Ki (Bcl-2-like protein 1) was > 5000 nM (not active). The “Cell Proliferation AC50” value (EOL1) was 2.1 nM, the “Cell Proliferation AC50” value (NOMO-1) was 4.8 nM and the “Cell Proliferation AC50” value (MOLM-13) was 10 nM. For the same molecule, the “Cell Proliferation AC50” value (MV4-11) was 14 nM, the “Cell Proliferation AC50” value (THP-1) was 27 nM and the “Cell Proliferation AC50” value (OCI-AML2) was 48 nM. The “Cell Proliferation AC50” value (SUD4) was 21 nM, the “Cell Proliferation AC50” value (Mino) was 73 nM and the “Cell Proliferation AC50” value (MOLP-8) was 8.7 nM. The “Cell Proliferation AC50” value (KMS-12-PE [6]) was 69 nM, the “Cell Proliferation AC50” value (KMS-12-PE [7]) was 79 nM and the “Cell Proliferation AC50” value (KMS-12-PE [8]) was over 30000 nM. For the same molecule, the “Cell Proliferation AC50” value (KMS-12-PE [9]) was over 30000 nM, the inhibition [10] was 47.8% and the inhibition [11] was 9.97%. It also gave an inhibition [12] of -6.42%, an inhibition [13] of -0.64% and an inhibition [14] of -1.5%. It also gave an inhibition [15] of 1.66%, an inhibition [16] of 6.57% and an inhibition [17] of 28.5%. The inhibition [18] was 20.1%, the inhibition [19] was 10.4% and the inhibition [20] was -6.66%. For the same molecule, the inhibition [21] was 13.5%, the inhibition [22] was 2.7% and the inhibition [23] was 26.2%. It also gave an inhibition [24] of 11.2%, an inhibition [25] of 30.1% and an inhibition [26] of 49.5%. The inhibition [27] was 61.9%, the inhibition [28] was 0.68% and the inhibition [29] was -0.28%. For the same molecule, the inhibition [30] was 13.1%, the inhibition [31] was 4.96% and the inhibition [32] was -1.94%. The inhibition [33] was 21.5%, the inhibition [34] was 6.6% and the inhibition [35] was 3.84%. It also gave an inhibition [36] of 4.71%, an inhibition [37] of 4.67% and an inhibition [38] of -0.94%. The inhibition [39] was -0.43%, the inhibition [40] was -9.51% and the inhibition [41] was 24.5%. For the same molecule, the inhibition (Rattus norvegicus) was 18.7%, the inhibition [42] was 2.28% and the inhibition [43] was 17.4%. It also gave an inhibition [44] of 20.6%.
For `COCCOCCn1nc(C)c2c1CSCc1cc(n(C)n1)CCc1cc(c3ccc(F)cc3c1)OCCCn1c(C(=O)O)c(C)c3c-2c(Cl)ccc31`, the Ki ([45]; read-out: Ki) was 1700 nM, the Ki ([45]; read-out: pKi (converted)) was 1580 nM and the Ki ([46]; read-out: Ki) was 2470 nM. For the same molecule, the Ki ([46]; read-out: pKi (converted)) was 2450 nM, the Ki ([47]; read-out: Ki) was 2880 nM and the Ki ([47]; read-out: pKi (converted)) was 2750 nM. It also gave a Ki ([48]; read-out: Ki) of 3720 nM, a Ki ([48]; read-out: pKi (converted)) of 3550 nM and a Ki ([2]; read-out: Ki) of 3230 nM. For the same molecule, the Ki ([2]; read-out: pKi (converted)) was 2630 nM, the Ki [3] was 115 nM (not active) and the AC50 [4] was > 30000 nM (not active). It also gave an inhibition [10] of 76.5%, an inhibition [11] of 26% and an inhibition [12] of 31.4%. It also gave an inhibition [13] of 10.6%, an inhibition [14] of 6.21% and an inhibition [15] of 7.75%. It also gave an inhibition [16] of 8.89%, an inhibition [17] of 54.5% and an inhibition [18] of 19%. It also gave an inhibition [19] of 34.7%, an inhibition [20] of -6.49% and an inhibition [21] of 18.2%. The inhibition [22] was 3.35%, the inhibition [23] was 51.7% and the inhibition [24] was 11.4%. The inhibition [25] was 58.9%, the inhibition [26] was 57.7% and the inhibition (Mu-type opioid receptor [49]) was 10.4%. It also gave an inhibition [27] of 78%, an inhibition [28] of 36.6% and an inhibition [29] of 10.8%. It also gave an inhibition [30] of 11.6%, an inhibition [31] of -6.18% and an inhibition [50] of -4.41%. The inhibition [32] was -0.92%, the inhibition [33] was 6.61% and the inhibition [34] was 29.5%. For the same molecule, the inhibition [35] was 7%, the inhibition [51] was -3.32% and the inhibition [36] was -3.65%. It also gave an inhibition [37] of 1.89%, an inhibition [38] of 4.4% and an inhibition [39] of -1.43%. The inhibition [52] was -9.96%, the inhibition [40] was 2.15% and the inhibition [41] was 14.2%. The inhibition (Rattus norvegicus) was 11.8%, the inhibition [42] was 1.09% and the inhibition [43] was 23.4%. For the same molecule, the inhibition [44] was 30.7%.
